Data as given in patent US9340774B2, “Tumor-initiating cells and methods for using same” (Wyeth LLC, priority 2009, dated 2016).

Key:
[1] = test system: 5T4; experiment: Anti-5T4 immunoblot of sorted cells treated with all-trans retinoic acid; assay type: cell-based, human; conditions: CD24−/lowCD44+ cells; 10 μM; 72 hours; 0.5% FBS medium; FIG. 6B
Description: To determine 5T4 expression under conditions of growth and differentiation, cells were harvested at several time points, and protein extracts were subjected to immunoblot analysis. Cells were washed with PBS and lysed in 0.5% v/v NP40 in 25 mM Tris-buffered saline pH 7.4 (TBS). After protein estimation (MICROBCA™ Protein Assay Kit, Pierce of Rockford, Ill., USA), the lysates were mixed with non-reducing Laemmli sample buffer (Biorad of Hercules, Calif., USA) and 10 μg samples were loaded in each well of a non-reducing 4-20% polyacrylamide gradient gel (NOVEX®, available from Invitrogen of Carlsbad, Calif., USA). The samples were run for two to three hours at 125 volts and transferred to a PVDF (polyvinylidene fluoride) membrane by means of a Novex® electrophoresis transfer system. The membrane was blocked overnight with 5% milk in Tris-buffered saline Tween-20 (TBST) with 1% goat serum, probed with anti-5T4 antibody H8 at 1 μg/ml in 5% milk in TBST, washed and probed with HRP conjugated goat anti-mulgG at 1:5,000 dilution. The ECL detection system was used (Amersham of Burlington, Mass., USA).
To further assess 5T4 expression in tumor cell lines, sorted cells were treated with all-trans retinoic acid to induce differentiation and then subjected to immunoblot analysis. […]

[2] = test system: H460T CD24−/lowCD44+ and CD24highCD44+ cells; experiment: Differential drug response of sorted H460T populations; assay type: cell-based, human
Description: H460 cells were obtained from the American Type Culture Collection (ATCC) in Manassas, Va., United States of America. The H460 cell line was derived from the pleural fluid of a patient with large cell cancer of the lung (Gazdar et al., Science, 1989, 246: 491494). HCC2429 cells were obtained from J. Minna. See Haruki et al., J. Med. Genet., 2005, 42(7):558-64. […] Higher-passage cells are referred to as H460T to distinguish them from the low-passage H460 that were originally obtained from ATCC. All cells were incubated at 37° Celsius with 5.0% carbon dioxide (CO2). H460T cells were cultured in RPMI-1640 (GIBCO®, available from Invitrogen of Carlsbad, Calif., USA). See Moore et al., JAMA, 1967, 199: 519-524, 10% fetal bovine serum (FBS, GIBCO®, available from Invitrogen of Carlsbad, Calif., USA), 2 mM additional glutamine, 100 IU/mipenicillin, 100 μg/ml streptomycin, 1 mM sodium pyruvate, 0.1% sodium bicarbonate, 045% additional glucose, and 10 mM 4-(2-hydroxyethyl)-1-piperazineethanesulfonic acid (HEPES). HCC2429 cells were cultured in RPMI-1640, 10% FBS, 2 mM additional glutamine, 100 IU/ml penicillin, 100 μg/ml streptomycin. Karyotyping and short tandem repeat (STR) analysis of H460T confirmed its H460 origin, however the Y chromosome was absent in H460T cells and present in most H460 cells. […]

[3] = test system: 60274 xenografts; experiment: Tumor regression of NSCLC primary implant xenografts, line 60274; assay type: in vivo, mice; conditions: maximum tolerable dose
Description: Nude (for 37622) or nod-scid (for 60274) mice were injected subcutaneously between the shoulder blades with fragments of low-passage primary implants. When the tumors reached the mass of 0.2 to 0.5 g, the tumors were staged to ensure uniformity of the tumor mass between various treatment groups prior to the administration of therapy. Anti-5T4 huH8 antibody and anti-CD33 p67.6 antibody were conjugated to calicheamicin via an amide linker as described (Hamann et al., Bioconug. Chem., 2002, 13: 40-46). The “amide” linker restricts the release of calicheamicin to cells that internalize the antibody-drug conjugate (Hamann et al., Bioconug. Chem., 2002, 13: 40-46). […] Tumors were measured at least once a week and their mass was as volume=0.5×(tumor width^2)(tumor length). Mean tumor volume (±SEM) for each treatment group was calculated and compared to the vehicle-treated group for statistical significance using a one-sided t-test, with the error term for the t-test based on the pooled variance across all treatment groups. Tumor values for each treatment group were recorded up to 120 days after the initiation of treatment or until either tumor-bearing mice died or the tumors grew to 15% of the body weight at which time these mice were euthanized according to institutional regulations.

[4] = test system: H460T CD24−/lowCD44+ and CD24highCD44+ cells; experiment: Colony formation (clonogenic) assay on sorted cells; assay type: cell-based, human; conditions: 72 hours drug exposure, 200 cells replated, colonies after 8 days; FIG. 10B
Description: To perform a colony formation assay, cells were seeded in 24 well plate at a density of 5,000 cells per well. Twenty-four hours after seeding the cells were exposed to various concentrations of (0.000097, 0.000390, 0.00156, 0.00625, 0.025, 0.1, 0.4 ng calicheamicin equivalents/ml) of anti-5T4 H8-AcBut conjugate, anti-CD22 AcBut conjugate, or calicheamicin alone. Seventy-two hours after the drug exposure, cells were trypsinized, counted and 200 cells were plated in 6 well plates. After 8 days, the colonies were fixed and stained with methylene blue. The number of colonies per well was counted using a Stereoscope.

[5] = test system: H460T CD24−/lowCD44+ and CD24highCD44+ cells; experiment: Four-day MTS cell viability assay on sorted cells; assay type: cell-based, human; conditions: 96 hours of drug exposure, FIG. 10A
Description: The CD24^−/lowCD44^+ population was more sensitive to an anti-5T4 antibody-drug conjugate than the CD24^highCD44^+ population in an cell viability assay and a colony growth assay. For each assay, antibody-calicheamicin AcBut-linked (AcBut-AcBut-[4-(4-acetylphenoxy) butanoic acid]) conjugates were prepared as described (Hamann et al., Bioconjug. Chem., 2002, 13: 47-58). The effect of anti-5T4 huH8 antibody-drug conjugate or anti-CD22 antibody-drug conjugate on sorted cells was assessed using a cellular viability indicator ((3-(4,5-dimethylthiazol-2-yl)-5([…])-2-(4-sulfophenyl)-2H-tetrazolium (MTS) (Promega of Madison, Wis., USA) to determine the number of surviving cells following exposure to the drug treatment. Cells were sorted 18 hours prior to start of assay. Cells were seeded in 96-well microtiter plates at a density of 10000 cells per well and exposed to various concentrations of the drug. Following determination of the number of viable cells surviving 96 hours of drug exposure, the IC50 of each treatment was calculated based on the logistic regression parameters derived from the dose-response curves. IC50 values were calculated by logistic non-linear regression and are reported as the calicheamicin dimethyl hydrazide (CalichDMH) concentration from each treatment group that causes 50% loss of cell viability.

Molecule: CC1=C(/C=C/C(C)=C/C=C/C(C)=C/C(=O)O)C(C)(C)CCC1 [all-trans retinoic acid]
- 5T4 expression (immunoblot) [1]: dramatically reduced

Molecule: O=c1[nH]cc(F)c(=O)[nH]1 [5-fluoruracil]
- response of CD24−/lowCD44+ versus CD24highCD44+ populations [2]: responded equally

Molecule: CC[C@@]1(O)C(=O)OCc2c1cc1n(c2=O)Cc2cc3ccccc3nc2-1 [camptothecin]
- response of CD24−/lowCD44+ versus CD24highCD44+ populations [2]: responded equally

Molecule: N.N.[Cl][Pt][Cl] [cisplatin]
- tumor size of 60274 xenografts ([3]; FIG. 12C): reduced tumor size transiently
- regrowth of 60274 tumors ([3]; after completion of the dosing regimen): quickly regrew

Molecule: calicheamicin
- sensitivity of CD24−/lowCD44+ cells versus CD24highCD44+ cells (number of colonies) [4]: No difference between the two populations
- sensitivity of CD24−/lowCD44+ cells versus CD24highCD44+ cells (IC50 as CalichDMH concentration) [5]: No difference between the two populations
